According to patent US20240140957A1, “BRIDGED COMPOUNDS AS KRAS G12D INHIBITOR AND DEGRADER AND THE USE THEREOF” (BeiGene Switzerland GmbH, priority 2021, published 2024):

Experiments:
[1] = target: GDP-loaded KRAS G12D (Homo sapiens, UniProt P01116, G12D); assay: KRAS G12D Probe Displacement Assay; assay type: binding; conditions: KRAS G12D 0.5 nM, biotinylated probe 2 4 nM; read-out: KRAS G12D Probe Displacement Assay IC50
[2] = target: GDP-loaded WT KRAS (Homo sapiens, UniProt P01116); assay: KRAS WT Probe Displacement Assay; assay type: binding; conditions: WT KRAS 3 nM, biotinylated probe 1 60 nM; read-out: KRAS WT Probe Displacement Assay IC50
Chain of GDP-loaded WT KRAS (P01116 1-188 isoform P01116-2): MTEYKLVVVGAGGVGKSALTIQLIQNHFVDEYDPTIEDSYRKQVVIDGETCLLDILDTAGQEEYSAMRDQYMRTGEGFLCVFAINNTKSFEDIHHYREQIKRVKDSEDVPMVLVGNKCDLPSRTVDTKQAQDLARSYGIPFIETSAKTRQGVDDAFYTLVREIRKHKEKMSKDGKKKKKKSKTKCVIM

[3] = system: pERK1/2 (THR202/TYR204) in AsPC-1 cells; assay: pERK Assay (HTRF) in AsPC-1 cells; assay type: cell-based; conditions: Homo sapiens, ASPC1, 2 h compound treatment

Chain of GDP-loaded KRAS G12D (P01116 1-188 isoform P01116-2 G12D): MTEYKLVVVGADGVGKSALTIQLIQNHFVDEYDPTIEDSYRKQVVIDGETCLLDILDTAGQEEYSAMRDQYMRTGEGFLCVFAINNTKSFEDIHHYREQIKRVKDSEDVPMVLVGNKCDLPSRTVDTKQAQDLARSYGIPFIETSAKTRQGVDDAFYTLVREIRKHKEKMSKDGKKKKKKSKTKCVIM

Structure (SMILES)	IC50 [1] [nM]	IC50 [2] [nM]	IC50 [3] [nM]
CC1(N2CCCCC2)CN(c2nc(N3CC4CCC(C3)N4)c3cc(Cl)c(-c4ccc(F)c5sc(N)nc45)c(F)c3n2)C1 [Example E62, 4-(4-(3,8-diazabicyclo[3.2.1]octan-3-yl)-6-chloro-8-fluoro-2-(3-methyl-3-(piperidin-1-yl)azetidin-1-yl)quinazolin-7-yl)-7-fluorobenzo[d]thiazol-2-amine]	9.6	660	740
Oc1cccc(F)c1-c1c(Cl)cc2c(N3CC4CCC(C3)N4)nc(OC[C@@]34CCCN3C[C@H](F)C4)nc2c1F [Example E81, 2-(4-(3,8-diazabicyclo[3.2.1]octan-3-yl)-6-chloro-8-fluoro-2-(((2R,7aS)-2-fluorotetrahydro-1H-pyrrolizin-7a(5H)-yl)methoxy)quinazolin-7-yl)-3-fluorophenol]	6.9	990	2380
Nc1nc2c(-c3c(C(F)(F)F)cc4c(N5C6CNCC5COC6)nc(OC[C@@]56CCCN5C[C@H](F)C6)nc4c3F)ccc(F)c2s1 [Example E55, 4-(4-(3-oxa-7,9-diazabicyclo[3.3.1]nonan-9-yl)-8-fluoro-2-(((2R,7aS)-2-fluorotetrahydro-1H-pyrrolizin-7a(5H)-yl)methoxy)-6-(trifluoromethyl)quinazolin-7-yl)-7-fluorobenzo[d]thiazol-2-amine]	0.25	2.7	59
Nc1nc2c(-c3c(Cl)cc4c(N5CC6CCC(C5)N6)nc(OC[C@@]56CCCN5C[C@H](F)C6)nc4c3Cl)ccc(F)c2s1 [Example E63, 4-(4-(3,8-diazabicyclo[3.2.1]octan-3-yl)-6,8-dichloro-2-(((2R,7aS)-2-fluorotetrahydro-1H-pyrrolizin-7a(5H)-yl)methoxy)quinazolin-7-yl)-7-fluorobenzo[d]thiazol-2-amine]	0.22	8.5	93
Cc1cc(N)nc(-c2c(Cl)cc3c(N4C5CNCC4COC5)nc(OC[C@@]45CCCN4C[C@H](F)C5)nc3c2F)c1C(F)(F)F (stereo in doubt) [Example E88, 6-(4-(3-oxa-7,9-diazabicyclo[3.3.1]nonan-9-yl)-6-chloro-8-fluoro-2-((2-fluorotetrahydro-1H-pyrrolizin-7a(5H)-yl)methoxy)quinazolin-7-yl)-4-methyl-5-(trifluoromethyl)pyridin-2-amine]	1.7	49	172
CC(C)c1cc2c(N3CC4CCC(C3)N4)nc(OC[C@@]34CCCN3C[C@H](F)C4)nc2c(F)c1-c1ccc(F)c2sc(N)nc12 [Example E71, 4-(4-(3,8-diazabicyclo[3.2.1]octan-3-yl)-8-fluoro-2-(((2R,7aS)-2-fluorotetrahydro-1H-pyrrolizin-7a(5H)-yl)methoxy)-6-isopropylquinazolin-7-yl)-7-fluorobenzo[d]thiazol-2-amine]	0.59	37.8	137
Cc1c(-c2ccc(F)c3sc(N)nc23)c(C(F)(F)F)cc2c(N3CC4CCC(C3)N4)nc(OC[C@@]34CCCN3C[C@H](F)C4)nc12 [Example E76, 4-(4-(3,8-diazabicyclo[3.2.1]octan-3-yl)-2-(((2R,7aS)-2-fluorotetrahydro-1H-pyrrolizin-7a(5H)-yl)methoxy)-8-methyl-6-(trifluoromethyl)quinazolin-7-yl)-7-fluorobenzo[d]thiazol-2-amine]	0.12	4.8	58
Nc1nc2c(-c3c(OC(F)(F)F)cc4c(N5CC6CCC(C5)N6)nc(OC[C@@]56CCCN5C[C@H](F)C6)nc4c3F)ccc(F)c2s1 [Example E87, 4-(4-(3,8-diazabicyclo[3.2.1]octan-3-yl)-8-fluoro-2-(((2R,7aS)-2-fluorotetrahydro-1H-pyrrolizin-7a(5H)-yl)methoxy)-6-(trifluoromethoxy)quinazolin-7-yl)-7-fluorobenzo[d]thiazol-2-amine]	0.24	25	112
CC(F)CNC1C[C@H]2CC[C@@H]1N2c1nc(OC[C@@]23CCCN2C[C@H](F)C3)nc2c(F)c(-c3ccc(F)c4sc(N)nc34)c(C(F)(F)F)cc12 (stereo partly drawn) [Example E86, 7-fluoro-4-(8-fluoro-4-((1S,4R)-2-((2-fluoropropyl)amino)-7-azabicyclo[2.2.1]heptan-7-yl)-2-(((2R,7aS)-2-fluorotetrahydro-1H-pyrrolizin-7a(5H)-yl)methoxy)-6-(trifluoromethyl)quinazolin-7-yl)benzo[d]thiazol-2-amine]	1.4	16	320
Nc1cc(Cl)c(C(F)(F)F)c(-c2c(Cl)cc3c(N4CC5CCC(C4)N5)nc(OC[C@@]45CCCN4C[C@H](F)C5)nc3c2F)n1 [Example E65, 6-(4-(3,8-diazabicyclo[3.2.1]octan-3-yl)-6-chloro-8-fluoro-2-(((2R,7aS)-2-fluorotetrahydro-1H-pyrrolizin-7a(5H)-yl)methoxy)quinazolin-7-yl)-4-chloro-5-(trifluoromethyl)pyridin-2-amine]	0.44	20.5	65
COCCNC1C[C@H]2CC[C@@H]1N2c1nc(OC[C@@]23CCCN2C[C@H](F)C3)nc2c(F)c(-c3ccc(F)c4sc(N)nc34)c(C(F)(F)F)cc12 (stereo partly drawn) [Example E58, 7-fluoro-4-(8-fluoro-2-(((2R,7aS)-2-fluorotetrahydro-1H-pyrrolizin-7a(5H)-yl)methoxy)-4-((1S,4R)-2-((2-methoxyethyl)amino)-7-azabicyclo[2.2.1]heptan-7-yl)-6-(trifluoromethyl)quinazolin-7-yl)benzo[d]thiazol-2-amine]	0.5	7.6	190
Nc1cc(Cl)c(C(F)(F)F)c(-c2c(Cl)cc3c(N4CC5CCC(C4)N5)nc(OC[C@@]45CCCN4C[C@H](F)C5)nc3c2F)c1 [Example E80, 3-(4-(3,8-diazabicyclo[3.2.1]octan-3-yl)-6-chloro-8-fluoro-2-(((2R,7aS)-2-fluorotetrahydro-1H-pyrrolizin-7a(5H)-yl)methoxy)quinazolin-7-yl)-5-chloro-4-(trifluoromethyl)aniline]	0.66	46	307
Nc1nc2c(-c3c(C(F)(F)F)cc4c(N5CC6CCC(C5)N6)nc(OC[C@@]56CCCN5C[C@H](F)C6)nc4c3Cl)ccc(Cl)c2s1 [Example E82, 4-(4-(3,8-diazabicyclo[3.2.1]octan-3-yl)-8-chloro-2-(((2R,7aS)-2-fluorotetrahydro-1H-pyrrolizin-7a(5H)-yl)methoxy)-6-(trifluoromethyl)quinazolin-7-yl)-7-chlorobenzo[d]thiazol-2-amine]	0.3	5	64
CN(C)CC1(COc2nc(N3CC4CCC(C3)N4)c3cc(Cl)c(-c4ccc(F)c5sc(N)nc45)c(F)c3n2)CCC1 [Example E68, 4-(4-(3,8-diazabicyclo[3.2.1]octan-3-yl)-6-chloro-2-((1-((dimethylamino)-methyl)cyclobutyl)methoxy)-8-fluoroquinazolin-7-yl)-7-fluorobenzo[d]thiazol-2-amine]	0.58	45	590
Nc1nc2c(-c3c(C(F)(F)F)cc4c(N5CC6CCC(C5)N6)nc(OC[C@@]56CCCN5C[C@H](F)C6)nc4c3Cl)ccc(F)c2s1 [Example E64, 4-(4-(3,8-diazabicyclo[3.2.1]octan-3-yl)-8-chloro-2-(((2R,7aS)-2-fluorotetrahydro-1H-pyrrolizin-7a(5H)-yl)methoxy)-6-(trifluoromethyl)quinazolin-7-yl)-7-fluorobenzoI[d]thiazol-2-amine]	0.33	5.1	38
CNC1C[C@H]2CC[C@@H]1N2c1nc(OC[C@@H]2C[C@@H](F)CN2C)nc2c(F)c(-c3ccc(F)c4sc(N)nc34)c(Cl)cc12 (stereo partly drawn) [Example E59, 4-(6-chloro-8-fluoro-2-(((2S,4R)-4-fluoro-1-methylpyrrolidin-2-yl)methoxy)-4-((1S,4R)-2-(methylamino)-7-azabicyclo[2.2.1]heptan-7-yl)quinazolin-7-yl)-7-fluorobenzo[d]thiazol-2-amine]	14	390	1400
Nc1nc2c(-c3c(C(F)(F)F)cc4c(N5CC6CCC(C5)N6)nc(OC[C@@]56CCCN5C[C@H](F)C6)nc4c3F)ccc(F)c2s1 [Example E52, 4-(4-(3,8-diazabicyclo[3.2.1]octan-3-yl)-8-fluoro-2-(((2R,7aS)-2-fluorotetrahydro-1H-pyrrolizin-7a(5H)-yl)methoxy)-6-(trifluoromethyl)quinazolin-7-yl)-7-fluorobenzoI[d]thiazol-2-amine]	0.36	3	48
Nc1nc2c(-c3c(C(F)(F)F)cc4c(N5C6CCC5CNC6)nc(OC[C@@]56CCCN5C[C@H](F)C6)nc4c3F)ccc(F)c2s1 [Example E60, 4-(4-(3,8-diazabicyclo[3.2.1]octan-8-yl)-8-fluoro-2-(((2R,7aS)-2-fluorotetrahydro-1H-pyrrolizin-7a(5H)-yl)methoxy)-6-(trifluoromethyl)quinazolin-7-yl)-7-fluorobenzo[d]thiazol-2-amine]	0.27	2.6	34
Cc1cc(N)nc(-c2c(C(F)(F)F)cc3c(N4CC5CCC(C4)N5)nc(OC[C@@]45CCCN4C[C@H](F)C5)nc3c2F)c1C(F)(F)F [Example E77, 6-(4-(3,8-diazabicyclo[3.2.1]octan-3-yl)-8-fluoro-2-(((2R,7aS)-2-fluorotetrahydro-1H-pyrrolizin-7a(5H)-yl)methoxy)-6-(trifluoromethyl)quinazolin-7-yl)-4-methyl-5-(trifluoromethyl)pyridin-2-amine]	0.52	33	122
